Data as given in patent US20240317736A1, “DEUTERATED DERIVATIVE AS ATX INHIBITOR, AND APPLICATION THEREOF” (Xizang Haisco Pharmaceutical Co., Ltd., priority 2020, published 2024).
Read-outs that look alike come from different tables or passages of the source.

Legend:
[1] = Pharmacokinetic test in rats; assay type: in vivo; settings: male, SD, rat, plasma; for Cmax: read-out: C0 or Cmax; for bioavailability: PO 5 mg/kg vs IV 1 mg/kg
Method: Test objective: test compounds were given to SD rats via single-dose intravenous and intragastric administration, the concentrations of the test compounds in plasma of rats were measured, and the pharmacokinetic characteristics and bioavailability of test compounds in rats were evaluated.
Test animals: male SD rats, about 220 g, 6-8 weeks old, six rats/compound, purchased from Chengdu Ddossy Experimental Animals Co., Ltd.
Test method: on the day of the test, 6 SD rats were randomly grouped according to their body weights. The rats were fasted with water available for 12-14 h one day before the administration, and were fed 4 h after the administration. The administration was performed according to Table 5.
Before and after the administration, 0.1 mL of blood was taken from the orbits of the rats under isoflurane anaesthesia, and placed in an EDTAK2 centrifuge tube. Centrifugation was performed at 5000 rpm at 4° C. for 10 min, and plasma was collected.
Time points for sample collection in group G1 comprise 0 min, 5 min, 15 min, 30 min, 1 h, 2 h, 4 h, 6 h, 8 h and 24 h.
Time points for sample collection in group G2 comprise 0 min, 15 min, 30 min, 1 h, 2 h, 4 h, 6 h, 8 h and 24 h.
30 μL of each of plasma samples, standard curve samples and quality control samples was taken, and 200 μL of acetonitrile solution containing an internal standard was added, and the resulting mixture was homogeneously mixed by vortex and centrifuged at 4° C. at 12000 rpm for 10 min. 170 μL of the supernatant was taken to a 96-well plate, and LC-MS/MS analysis was performed, wherein the sample size was 2 μL.
The main pharmacokinetic parameters were analyzed by a non-compartmental model using WinNonlin 8.0 software.

[2] = biological target: T1, autocrine motility factor (Homo sapiens, UniProt Q13822); test: Inhibition of LPA formation in mixed ex vivo human plasma; assay type: biochemical; settings: 37° C., 2 h
T1 construct: Whole blood was anticoagulated with heparin and centrifuged, and then plasma was collected; from tissue; host or cells: pooled human plasma (heparin-anticoagulated whole blood)
Method: Autocrine motility factor is a phosphodiesterase in plasma that converts lysophosphatidylcholine (LPC) to lysophosphatidic acid (LPA). Therefore, the formation of LPA can be used to evaluate the potency of an autocrine motility factor inhibitor. The potency of the compound in mixed ex vivo human plasma was evaluated.
Whole blood was anticoagulated with heparin and centrifuged, and then plasma was collected. 5 μL of gradient-diluted test compounds or DMSO was added to 95 μL of plasma and incubated at 37° C. for 2 h. After that, a stop buffer (40 mM disodium hydrogen phosphate buffer, containing 30 mM of citric acid, pH=4) was added. LPA in plasma was detected by LC-MSMS before and after incubation. In order to determine the concentration of LPA 18:2 or LPA 20:4 in the plasma in study, calibration standard substances at 20000 ng/mL, 10000 ng/mL, 5000 ng/ml, 2000 ng/ml, 1000 ng/mL, 500 ng/mL, 200 ng/ml, 100 ng/mL, 50 ng/ml, 20 ng/mL and 10 ng/ml for LPA 18:2 or LPA 20:4 were prepared by performing serial dilution in butanol. 3 μL of calibration standard solution was added to 27.0 μL of blank plasmas in each 1.5 mL microcentrifuge tube to produce 1× calibration standard substances. 30.0 μL of standard substances or plasma in study was added to each 1.5 mL microcentrifuge tube. 200 μL of butanol (containing 25.0 ng/mL LPA 17:0 for internal control) was added to each 1.5 mL microcentrifuge tube containing the plasma in study or calibration standard substance. Vortex oscillation was performed for 1 min, and centrifugation was performed at 10000 rpm for 10 min. 180 μL of the supernatant was transferred to a 96-well plate, and LC/MS/MS was used together with the standard substance to quantify the concentration of LPA 18:2 in the plasma. In short, 8 μL of the solution was injected, and LC-MS/MS analysis using an ACQUITY UPLC BEH C18 column (2.1×50 mm, 1.7 μm) was performed, wherein mobile phase A [20 mM NH4OAC aqueous solution (0.1% FA)] and mobile phase B [5 mM NH4OAC aqueous solution/0.2% FA in ACN=5:95] were used. The parameters of a mass spectrometer for LPA 18:2 were optimized by means of deprotonation of molecular ions. For LPA 18:2 at m/z 433.2([M−H]−), LPA 20:4 at 457.2, and LPA 18:2 and LPA 20:4 both at m/z 152.8, abundant product ions were obtained. Quantitative data were obtained in a multiple reaction monitoring (MRM) negative electrospray ionization mode.
The inhibition rates of compounds at different concentrations on LPA formation were determined by comparing the changes of LPA levels in incubated and unincubated plasma. The IC50 of the compounds was calculated as a calculation inhibition rate, and the relative concentration at each well=the concentration at each well−the average concentration at baseline.
Inhibition rate %=(average relative concentration at control well−average relative concentration at test well)/average relative concentration at control well×100%. The curve was plotted with the inhibition rates as a y axis and the compound concentrations as an x axis, and fitting was performed by GraphPad Prism7.0 using log (inhibitor) and normalized response (variable slope).

[3] = LPA 18:2 by LC-MS/MS, read-out: IC50 for inhibiting LPA formation (18:2)
[4] = LPA 20:4 by LC-MS/MS, read-out: IC50 for inhibiting LPA formation (20:4)

Compound | AUC ([1]; IV 1 mg/kg) [ng·h/mL] | half-life ([1]; IV 1 mg/kg) [min] | Cmax ([1]; IV 1 mg/kg) [ng/mL] | AUC ([1]; PO 5 mg/kg) [ng·h/mL] | Tmax ([1]; PO 5 mg/kg) [h] | half-life ([1]; PO 5 mg/kg) [min] | bioavailability [1] [%] | Cmax ([1]; PO 5 mg/kg) [ng/mL] | IC50 [2, 3] [nM] | IC50 [2, 4] [nM]
[2H]C([2H])([2H])C([2H])([2H])c1nn2cc(F)c(N3CCN(CC(=O)N4CC(O)C4)CC3)cc2c1N(C)c1nc(-c2ccc(F)cc2)c(C#N)s1 [Compound 1, 2-((2-(ethyl-d5)-6-fluoro-5-(4-(2-(3-hydroxyazetidin-1-yl)-2-oxoethyl)piperazin-1-yl)pyrazolo[1,5-a]pyridin-3-yl)(methyl)amino)-4-(4-fluorophenyl)thiazole-5-carbonitrile] | 1060 ± 124 | 156 ± 36.6 | 967 ± 106 | 1170 ± 46 | 4 ± 2 | 384 ± 144 | 22.1 ± 0.87 | 181 ± 10 | 46 | 48.5
[2H]C([2H])([2H])N(c1nc(-c2ccc(F)cc2)c(C#N)s1)c1c(C([2H])([2H])C([2H])([2H])[2H])nn2cc(F)c(N3CCN(CC(=O)N4CC(O)C4)CC3)cc12 [Compound 2, 2-((2-(ethyl-d5)-6-fluoro-5-(4-(2-(3-hydroxyazetidin-1-yl)-2-oxoethyl)piperazin-1-yl)pyrazolo[1,5-a]pyridin-3-yl)(methyl-d3)amino)-4-(4-fluorophenyl)thiazole-5-carbonitrile] | 1330 ± 83 | 144 ± 21 | 1030 ± 62 | 2570 ± 449 | 4.33 ± 2.9 | 172 ± 9 | 38.6 ± 6.7 | 297 ± 105 | 52 | 55.3
[2H]C1([2H])N(CC(=O)N2CC(O)C2)C([2H])([2H])C([2H])([2H])N(c2cc3c(N(C)c4nc(-c5ccc(F)cc5)c(C#N)s4)c(CC)nn3cc2F)C1([2H])[2H] [Compound 4, 2-((2-ethyl-6-fluoro-5-(4-(2-(3-hydroxyazetidin-1-yl)-2-oxoethyl)piperazin-1-yl-2,2,3,3,5,5,6,6-d8)pyrazolo[1,5-a]pyridin-3-yl)(methyl)amino)-4-(4-fluorophenyl)thiazole-5-carbonitrile] | – | – | – | – | – | – | – | – | 51.8 | 54.8

Now from value to molecule:

AUC ([1]; IV 1 mg/kg) [ng·h/mL] | half-life ([1]; IV 1 mg/kg) [min] | Cmax ([1]; IV 1 mg/kg) [ng/mL] | AUC ([1]; PO 5 mg/kg) [ng·h/mL] | Tmax ([1]; PO 5 mg/kg) [h] | half-life ([1]; PO 5 mg/kg) [min] | bioavailability [1] [%] | Cmax ([1]; PO 5 mg/kg) [ng/mL] | IC50 [2, 3] [nM] | IC50 [2, 4] [nM] | Compound
943 ± 109 | 116 ± 4.32 | 748 ± 187 | 2420 ± 860 | 1.17 ± 0.76 | 146 ± 19.8 | 51.3 ± 18 | 399 ± 137 | – | – | [2H]c1c([2H])c(-c2nc(N(C)c3c(CC)nn4cc(F)c(N5CCN(CC(=O)N6CC(O)C6)CC5)cc34)sc2C#N)c([2H])c([2H])c1F [Compound 9, 2-((2-ethyl-6-fluoro-5-(4-(2-(3-hydroxyazetidin-1-yl)-2-oxoethyl)piperazin-1-yl)pyrazolo[1,5-a]pyridin-3-yl)(methyl)amino)-4-(4-fluorophenyl-2,3,5,6-d4)thiazole-5-carbonitrile]
1050 ± 84 | 123 ± 17.4 | 813 ± 85 | 1960 ± 858 | 2.83 ± 2 | 158 ± 4.26 | 37.3 ± 6 | 234 ± 136 | – | – | [2H]c1c([2H])c(-c2nc(N(c3c(CC)nn4cc(F)c(N5CCN(CC(=O)N6CC(O)C6)CC5)cc34)C([2H])([2H])[2H])sc2C#N)c([2H])c([2H])c1F [Compound 10, 2-((2-ethyl-6-fluoro-5-(4-(2-(3-hydroxyazetidin-1-yl)-2-oxoethyl)piperazin-1-yl)pyrazolo[1,5-a]pyridin-3-yl)(methyl-d3)amino)-4-(4-fluorophenyl-2,3,5,6-d4)thiazole-5-carbonitrile]
